Structures are written as SMILES. Where two headings read alike, the source gives them in different places.

The values below come from US9938301B2, “Dihydropyrimido fused ring derivative as HBV inhibitor” (QILU PHARMACEUTICAL CO., LTD., priority 2014, dated 2018).

For this test, the system named is HBV DNA in HepG2.2.15 cells. As to the kind of experiment: HBV in vitro assay quantitive qPCR test. In kind it is cell-based. To be noted: Hepatitis B virus. The method, then:
• 1 Purpose of the test: • The content of HBV DNA in HepG2.2.15 cells was detected by real time quantitive qPCR test to evaluate an inhibitory action of the compound on HBV with an EC50 value of the compound as an indicator. • 2 Experimental materials: • 2.1 Cell lines: HepG2.2.15 Cells • HepG2.2.15 cell culture media (DMEM/F12, Invitrogen-11330057; 10% serum, Invitrogen-10099141; 100 units/ml Penicillin and 10 μg/ml Streptomycin, Invitrogen-15140122; 1% non-essential amino acid, Invitrogen-1140076; 2 mM L-GLUTAMINE, Invitrogen-25030081; 300 μg/ml Geneticin, Invitrogen-10131027 • 2.2 Reagents: • trypsin (Invitrogen-25300062) • DPBS (Hyclone-SH30028.01B) • DMSO (Sigma-D2650-100ML) • High-Throughput DNA Purification Kit (QIAamp 96 DNA Blood Kit, Qiagen-51162) • Quantitative Fast Start Universal Probe Reagent (FastStart Universal Probe Master, Roche-04914058001) • 2.3 Materials and Instruments: • 96-well cell culture plate (Corning-3599) • CO2 Incubator (HERA-CELL-240) • Optical Sealing Membrane (ABI-4311971) • Quantitative PCR 96-well Plate (Applied Biosystems-4306737) • Fluorescent Quantitative PCR Instrument (Applied Biosystems-7500 real time PCR system) • 3. Testing steps and Methods: • 3.1 HepG2.2.15 cells (4×10^4 cells/well) were planted into a 96-well plate, and at 37° C., 5% CO2 cultured overnight. • 3.2 On Day 2, the compounds were diluted in totally 8 concentrations with a dilution gradient of three times. The compounds at different concentrations were added into the culture wells in duplicate. The final concentration of DMSO in the culture media was 1%. 1 μM GLS4 was used as 100% inhibition control; 1% DMSO as 0% inhibition control. • 3.3 On Day 5, replacing with the fresh culture media containing the compound was performed. • 3.4 On Day 8, the culture media in the culture wells was collected, and DNA was extracted with a High-Throughput DNA Purification Kit (Qiagen-51162), See Specification of the product for specific steps. • 3.5 Preparation of PCR Reaction Mixture was shown in Table 1:
• 3.6 To each well of a 96-well PCR plate was added 15 μl reaction mixture, and then to each well was added 10 μl sample DNA or HBV DNA standard. • 3.7 The reaction conditions of PCR were: heating at 95° C. for 10 minutes; then at 95° C. denaturing for 15 seconds, and at 60° C. extending for 1 minute, totally 40 cycles. • 3.8 Data Analysis: • 3.8.1 The inhibition percentage was calculated: % Inh.=[1−(DNA copy number in sample−DNA copy number in 1 μM GLS4)/(DNA copy number in DMSO control−DNA copy number in 1 μM GLS4)]×100. • 3.8.2 Calculating EC50: the concentration of the compound for 50% inhibition of HBV (EC50) was calculated by using GraphPad Prism Software. • 4 Testing Results • The testing results were shown in Table 3: […]
In general terms: Quantitative PCR measures a nucleic acid by following its amplification.

Setting [1] is: qPCR assay, HepG2.2.15 cells, read-out: Concentration for 50% inhibition of HBV (EC50)value.
The mark [2] stands for this setting: summary list of target compounds, Examples 166-220 (values of Table 3), HepG2.2.15 cells, read-out: BIOACTIVITY (inhibitory actions on HBV DNA, EC50).

For `COC(=O)C1=C2C[C@H](NS(=O)(=O)c3ccccc3)CN2C(c2nccs2)=N[C@H]1c1ccc(F)cc1Cl` [Example 189], the EC50 by setting is: under setting [1], less than 100 nM; under setting [2], less than 100 nM.

As to `COC(=O)C1=C2C[C@H](NP(=O)(OC)OC)CN2C(c2nccs2)=N[C@H]1c1ccc(F)cc1Cl` [Example 190], the EC50 (HepG2.2.15, read-out: BIOACTIVITY (inhibitory actions on HBV DNA, EC50)) lay within 100 to 500 nM and the EC50 (HepG2.2.15, read-out: Concentration for 50% inhibition of HBV (EC50)value) lay within 100 to 500 nM.

For `COC(=O)C1=C2C[C@H](NS(C)(=O)=O)CN2C(c2ncc(F)cc2F)=N[C@H]1c1ccc(F)cc1Cl` [Example 191], the EC50 is less than 100 nM under setting [1] and less than 100 nM under setting [2].

With `COC(=O)C1=C2C[C@H](N(C)S(N)(=O)=O)CN2C(c2nccs2)=N[C@H]1c1ccc(F)cc1Cl` [Example 192], the EC50 runs as follows: under setting [1], less than 100 nM; under setting [2], less than 100 nM.

`COC(=O)C1=C2C[C@H](NS(N)(=O)=O)CN2C(c2nccs2)=N[C@H]1c1ccc(F)c(F)c1F` [Example 193]: the EC50 by setting is: under setting [1], less than 100 nM; under setting [2], less than 100 nM.

Regarding `COC(=O)C1=C2C[C@H](NS(C)(=O)=O)CN2C(c2nccs2)=N[C@H]1c1ccc(F)cn1` [Example 194], the EC50 runs as follows: under setting [1], 1000 to 5000 nM; under setting [2], 1000 to 5000 nM.

With `[H]/N=C(\N)N[C@H]1CC2=C(C(=O)OC)[C@H](c3ccc(F)cc3Cl)N=C(c3nccs3)N2C1` [Example 195], the EC50 is, setting by setting: under setting [1], 1000 to 5000 nM; under setting [2], 1000 to 5000 nM.

Regarding `COC(=O)C1=C2C[C@H](N(O)S(C)(=O)=O)CN2C(c2nccs2)=N[C@H]1c1ccc(F)cc1Cl` [Example 196], the EC50 by setting is: under setting [1], 1000 to 5000 nM; under setting [2], 1000 to 5000 nM.

In the case of `COC(=O)C1=C2C[C@H](NS(N)(=O)=O)CN2C(c2nccs2)=N[C@@H]1c1ccc(F)c(F)c1Cl` [Example 197], the EC50 fell in the range of 1000 to 5000 nM under setting [1] and 1000 to 5000 nM under setting [2].

With `COC(=O)C1=C2C[C@H](NS(N)(=O)=O)CN2C(c2nccs2)=N[C@H]1c1ccc(F)c(F)c1Cl` [Example 198], the EC50 by setting is: under setting [1], less than 100 nM; under setting [2], less than 100 nM.

As for `COC(=O)C1=C2C[C@H](NS(=O)(=O)c3cccnc3)CN2C(c2nccs2)=N[C@H]1c1ccc(F)cc1Cl` [Example 199], the EC50 is less than 100 nM under setting [1] and less than 100 nM under setting [2].

Regarding `COC(=O)C1=C2C[C@H](NS(=O)(=O)c3ccccn3)CN2C(c2nccs2)=N[C@H]1c1ccc(F)cc1Cl` [Example 200], the EC50 was less than 100 nM under setting [1] and less than 100 nM under setting [2].

For the compound `COC(=O)C1=C2C[C@H](NS(C)(=O)=O)CN2C(c2nccs2)=N[C@H]1c1ccc(F)c(F)c1Cl` [Example 201], the EC50 is, setting by setting: under setting [1], less than 100 nM; under setting [2], less than 100 nM.

On to `COC(=O)C1=C2C[C@H](NS(C)(=O)=O)CN2C(c2ncc(C)s2)=N[C@H]1c1ccc(F)cc1Cl` [Example 202], for which the EC50 under setting [1] was 100 to 500 nM and the EC50 under setting [2] lay within 100 to 500 nM.

As for `COC(=O)C1=C2C[C@H](NS(C)(=O)=O)CN2C(c2nccs2)=N[C@H]1c1ccc(F)cc1C(F)(F)F` [Example 203], the EC50 by setting is: under setting [1], 100 to 500 nM; under setting [2], 100 to 500 nM.

On to `COC(=O)C1=C2C[C@H](NS(=O)(=O)c3ccccc3F)CN2C(c2nccs2)=N[C@H]1c1ccc(F)cc1Cl` [Example 204], for which the EC50 is less than 100 nM under setting [1] and less than 100 nM under setting [2].

With `COC(=O)C1=C2C[C@H](NS(C)(=O)=O)CN2C(c2nccs2)=N[C@H]1c1ccc(F)cc1F` [Example 205], the EC50 was less than 100 nM under setting [1] and less than 100 nM under setting [2].

Turning to `CNS(=O)(=O)N[C@H]1CC2=C(C(=O)OC)[C@H](c3ccc(F)c(F)c3F)N=C(c3nccs3)N2C1` [Example 206], the EC50 under setting [1] was less than 100 nM and the EC50 under setting [2] was less than 100 nM.

As to `COC(=O)C1=C2C[C@H](NS(=O)(=O)N(C)C)CN2C(c2nccs2)=N[C@H]1c1ccc(F)c(F)c1F` [Example 207], the EC50 runs as follows: under setting [1], less than 100 nM; under setting [2], less than 100 nM.

Regarding `COC(=O)C1=C2C[C@H](NS(=O)(=O)N3CCCC3)CN2C(c2nccs2)=N[C@H]1c1ccc(F)c(F)c1F` [Example 208], the EC50 is, setting by setting: under setting [1], less than 100 nM; under setting [2], less than 100 nM.

As for `COC(=O)C1=C2C[C@H](NS(=O)(=O)NC(C)C)CN2C(c2nccs2)=N[C@H]1c1ccc(F)c(F)c1F` [Example 209], the EC50 under setting [1] was less than 100 nM and the EC50 under setting [2] is less than 100 nM.

With `COC(=O)C1=C2C[C@H](NS(=O)(=O)NC(C)(C)C)CN2C(c2nccs2)=N[C@H]1c1ccc(F)c(F)c1F` [Example 210], the EC50 runs as follows: under setting [1], less than 100 nM; under setting [2], less than 100 nM.

On to `COC(=O)C1=C2C[C@H](NS(=O)(=O)N3CCC3)CN2C(c2nccs2)=N[C@H]1c1ccc(F)c(F)c1F` [Example 212], for which the EC50 was 100 to 500 nM under setting [1] and 100 to 500 nM under setting [2].

On to `CCS(=O)(=O)N[C@H]1CC2=C(C(=O)OC)[C@H](c3cccc(F)c3Cl)N=C(c3nccs3)N2C1` [Example 213], for which the EC50 by setting is: under setting [1], less than 100 nM; under setting [2], less than 100 nM.

For the compound `CCCCNS(=O)(=O)N[C@H]1CC2=C(C(=O)OC)[C@H](c3ccc(F)c(F)c3F)N=C(c3nccs3)N2C1` [Example 214], the EC50 is less than 100 nM under setting [1] and less than 100 nM under setting [2].

Turning to `COC(=O)C1=C2C[C@H](NS(=O)(=O)N(C)C)CN2C(c2nccs2)=N[C@H]1c1cccc(F)c1Cl` [Example 215], the EC50 is, setting by setting: under setting [1], less than 100 nM; under setting [2], less than 100 nM.

With `COC(=O)C1=C2C[C@H](NS(=O)(=O)NC(C)C)CN2C(c2nccs2)=N[C@H]1c1cccc(F)c1Cl` [Example 216], the EC50 is, setting by setting: under setting [1], less than 100 nM; under setting [2], less than 100 nM.

For the compound `COC(=O)C1=C2C[C@H](NC(=O)OC(C)(C)C)CN2C(c2nccs2)=N[C@H]1c1cccc(F)c1Cl` [Example 217], the EC50 is less than 100 nM under setting [1] and 1000 to 5000 nM under setting [2].

`COC(=O)C1=C2C[C@H](NS(N)(=O)=O)CN2C(c2nccs2)=N[C@H]1c1cccc(F)c1Cl` [Example 218]: the EC50 reads like this: under setting [1], less than 100 nM; under setting [2], less than 100 nM.

Regarding `COC(=O)C1=C2C[C@H](NS(N)(=O)=O)CN2C(c2ncc(F)cc2F)=N[C@H]1c1ccc(F)c(F)c1F` [Example 219], the EC50 by setting is: under setting [1], 100 to 500 nM; under setting [2], 100 to 500 nM.

Take `COC(=O)C1=C2C[C@H](NS(N)(=O)=O)CN2C(c2nccs2)=N[C@H]1c1cccc(F)c1F` [Example 220]: the EC50 was less than 100 nM under setting [1] and less than 100 nM under setting [2].
